Article PMC7221806, “PF74 and Its Novel Derivatives Stabilize Hexameric Lattice of HIV-1 Mature-Like Particles” (Molecules, 2020)

Experiments:
HIV-1 CANC [1] = target: T1, HIV-1 CANC (Human immunodeficiency virus type 1 group M subtype B, UniProt P12493); assay: Disassembly inhibitor test for HIV (DITH), stability of preassembled CANC particles, with TEM; conditions: 10 µM; for TEM of CANC particles after incubation in disassembly buffer: after DITH, negative staining; for relative stability of HIV-1 CANC assemblies in disassembly buffer: CANC without inhibitor in disassembly buffer = 0%
HIV-1 [2] = assay type: cell-based; conditions: OMK cells, 10 µM, 2.5 µM CsA
[3] = Cytotoxicity, resazurin assay; assay type: cell-based; conditions: human, HEK 293T cells, 24 h treatment
HIV-1 [4] = assay: microbe, parasite or virus in culture; assay type: cell-based; conditions: for IC50: Human immunodeficiency virus 1, HEK293, 48 h
HIV-1 CANC [5] = target: T1, HIV-1 CANC; assay: Fast Assembly Inhibitor Test for HIV (FAITH), in vitro assembly of mature-like particles, with TEM; conditions: 10 µM; for TEM phenotype of CANC assembled in presence of inhibitor: after FAITH, negative staining
[6] = Cytotoxic effect on OMK cells; assay type: cell-based; conditions: owl monkey, OMK (owl monkey kidney) cells

Row | Compound | stabilization of HIV-1 CANC compared with PF74 (in words) (HIV-1 CANC [1]) | effect on HIV-1 infectivity / uncoating in CsA-washout assay (in words) (HIV-1 [2]) | CC50 at 24 h [3] | inhibitory activity against HIV-1 compared with PF74 (in words) (HIV-1 [4]) | IC50 (HIV-1 [4]) | TEM of CANC particles after incubation in disassembly buffer (HIV-1 CANC [1]) | TEM phenotype of CANC assembled in presence of inhibitor (HIV-1 CANC [5]) | relative stability of HIV-1 CANC assemblies in disassembly buffer (HIV-1 CANC [1]) | CC50 [6] | effect on assembly of mature-like CANC particles (in words) (HIV-1 CANC [5]; CANC without inhibitor = 100%)
1 | CN(C(=O)[C@H](Cc1ccccc1)NC(=O)Cc1c[nH]c2ccccc12)c1ccccc1 [D1, (S)-2-(2-(1H-indol-3-yl)acetamido)-N-methyl-N,3-diphenylpropanamide] | only slightly less active in stabilization than PF74 | strongest impact on HIV-1 infectivity in OMK cells at the early stage of HIV-1 infection | > 40 µM | only slightly weaker than that of PF74 | 3.5 ± 0.6 µM |  |  |  |  | 
2 | COc1ccc2c(c1)c(CC(=O)N[C@@H](Cc1ccccc1)C(=O)N(C)c1ccccc1)c(C)n2C(=O)c1ccc(Cl)cc1 [D2, (S)-2-(2-(1-(4-chlorobenzoyl)-5-methoxy-2-methyl-1H-indol-3-yl)acetamido)-N-methyl--N,3-diphenylpropanamide] | lower effect on HIV-1 CANC stability than PF74 |  | > 40 µM |  | 8 ± 1.2 µM | mainly disassembled material |  |  |  | 
3 | CC(C)Cc1ccc([C@@H](C)C(=O)N[C@@H](Cc2ccccc2)C(=O)N(C)c2ccccc2)cc1 [D4R, (S)-2-((R)-2-(4-isobutylphenyl)propanamido)-N-methyl-N,3-diphenylpropanamide] | lower effect on HIV-1 CANC stability than PF74 |  | 27 ± 3.5 µM |  | > 20 µM | mainly disassembled material |  |  |  | 
4 | CN(C(=O)[C@H](Cc1ccccc1)NC(=O)[C@@H]1Cc2ccccc2C(=O)N1)c1ccccc1 [D7, (S)-N-((S)-1-(methyl(phenyl)amino)-1-oxo-3-phenylpropan-2-yl)-1-oxo-1,2,3,4--tetrahydroisoquinoline-3-carboxamide] | lower effect on HIV-1 CANC stability than PF74 |  | > 40 µM |  | > 20 µM | mainly disassembled material | long, tubular structures |  |  | 
5 | CN(C(=O)[C@H](Cc1ccccc1)NC(=O)[C@H]1Cc2ccccc2C(=O)N1C)c1ccccc1 [D8R, (R)-2-methyl-N-((S)-1-(methyl(phenyl)amino)-1-oxo-3-phenylpropan-2-yl)-1-oxo--1,2,3,4-tetrahydroisoquinoline-3-carboxamide] | lower effect on HIV-1 CANC stability than PF74 | major effect | > 40 µM | only slightly weaker than that of PF74 | 4.5 ± 1.5 µM | mainly disassembled material |  |  |  | 
6 | CN(C(=O)[C@H](Cc1ccccc1)NC(=O)[C@@H]1Cc2ccccc2C(=O)N1C)c1ccccc1 [D8S, (S)-2-methyl-N-((S)-1-(methyl(phenyl)amino)-1-oxo-3-phenylpropan-2-yl)-1-oxo--1,2,3,4-tetrahydroisoquinoline-3-carboxamide] | lower effect on HIV-1 CANC stability than PF74 |  | > 40 µM |  | > 20 µM | mainly disassembled material |  |  |  | 
7 | CN(C(=O)[C@H](Cc1ccccc1)NC(=O)Cc1n[nH]c2ccccc12)c1ccccc1 [D9, (S)-2-(2-(1H-indazol-3-yl)acetamido)-N-methyl-N,3-diphenylpropanamide] | more potent stabilizers than PF74 | highly active during the first two hours post infection, then its activity dropped | > 40 µM | only slightly weaker than that of PF74 | 3.4 ± 0.9 µM | intact CANC particles |  | 80% |  | 
8 | CN(C(=O)[C@H](Cc1ccccc1)NC(=O)NCc1nc2ccccc2[nH]1)c1ccccc1 [D10, (S)-2-(3-((1H-benzo[d]imidazol-2-yl)methyl)ureido)-N-methyl-N,3-diphenylpropanamide] | more potent stabilizers than PF74 |  | 10 ± 1.6 µM | better inhibitory activity against HIV-1 than PF74 | 0.5 ± 0.3 µM | intact CANC particles | predominant formation of cone-like and shorter tubular structures | 90% | < 3 µM | 
9 | Cc1[nH]c2ccccc2c1CC(=O)N[C@@H](Cc1ccccc1)C(=O)N(C)c1ccccc1 [PF74] |  | strongest impact on HIV-1 infectivity in OMK cells at the early stage of HIV-1 infection | > 40 µM |  | 1.75 ± 0.5 µM | intact CANC particles | predominant formation of cone-like and shorter tubular structures | about 60% |  | no effect
